Test results as given in patent publication US10093675B2, “6,8-disubstituted-9-(heterocyclyl)purines, compositions containing these derivatives and their use in cosmetic and medicinal applications” (USTAV EXPERIMENTALNI BOTANIKY AV CR, V.V.I., priority 2014, dated 2018).

Columns and labels:
[1] = test system: Salmonella typhimurium histidien auxotrophs TA98 and TA100; assay: Ames test; format: cell-based; details: 2.5 to 5000 μg/plate; presence and absence of Aroclor-induced rat liver S9
Description: A number of tests related to the safety of have been carried out using conventionally accepted protocols and procedures. The results of these studies are summarized herein. Tests were carried out using DMSO as solvent and dose levels of compound 21, 24, 26, 27, 39, 41, 45, 48, 50, 52, 53, 54, 55, 56, 63, 64, 66, 67, 68, 69, 70, 71, 72, 74, 76, 124, 125, 126, 127, 128, 129, 130, 145, 146, 147, 149, 150, 151, 208, 216, 218 a 243 at 2.5, 5.0, 15, 50, 500, 1500, and 5000 μg/plate based upon standard protocol and procedures (Ames et al., Mutation Research, 31, 347-364 (1975); Maron et al., Mutation Research, 113, 173-215 (1983)).

[2] = test system: human diploid fibroblasts (HDF cells; HDF25, HDF45, HDF80); assay: Inhibition of human cell aging: senescent cells by beta-galactosidase staining; format: cell-based; details: for SENESCENT CELLS (%) HDF25: human diploid fibroblasts passage 25, beta-galactosidase staining; for SENESCENT CELLS (%) HDF45: human diploid fibroblasts passage 45, beta-galactosidase staining; for SENESCENT CELLS (%) HDF80: human diploid fibroblasts passage 80, beta-galactosidase staining
Description: In this example, human diploid fibroblasts (HDF cells of various passage levels: passage 25—designated HDF25; passage 45—designated HDF45; passage 80—designated HDF80) were stained for beta-galactosidase activity. The medium used for the cell cultivation was removed the cells were washed twice in […], and fixed in 2-3 ml of fixing solution comprised of a 2% formaldehyde and 0.2% glutaraldehyde in PBS. The cells were incubated at room temperature for 5 minutes, and then washed twice with PBS. The cells were subsequently incubated at 37° C. […] In this experiment, senescent cells, but no other cells were stained blue due to the action of beta-galactosidase on the substrate.

[3] = test system: excised wheat leaf tips (Triticum aestivum cv. Hereward); assay: Senescence inhibition on winter wheat leaf segments (retention of chlorophyll); format: in vivo; details: 10^−4 mol/L; 96 hours in the dark; activity of kinetin set at 100%
Description: Seeds of winter wheat, Triticum aestivum cv. Hereward, were washed under running water for 24 hours and then sown on vermiculite soaked with Knop's solution. They were placed in the grown chamber at 25° C. with a 16/8 hours light period at […]. After 7 days, the first leaf was fully developed and the second leaf had started to grow. A tip section of the first leaf, approximately 35 mm long, was removed from 5 seedlings and trimmed slightly to a combined weight of 100 mg. The basal ends of the five leaf tips were placed in the wells of a microtiter polystyrene plate containing […] of a cytokinin solution each. The entire plate was inserted into a plastic box lined with paper tissues soaked in distilled water to prevent leaf sections from drying out. After 96 hours incubation in the dark at 25° C., the leaves were removed and chlorophyll extracted by heating at 80 C for 10 min in 5 ml of 80% ethanol (v/v). The sample volume was then restored to 5 ml by the addition of 80% ethanol (v/v). The absorbance of the extract was recorded at 665 nm. In addition, chlorophyll extracts from fresh leaves and leaf tips incubated in deionized water were measured. From the obtained data, the concentration with highest activity was selected for each compound tested. Relative activity of the compound at this concentration was calculated (see Table 6 below). The activity obtained for 10^−4 M kinetin (Kin) was set as 100%. The values shown are means of five replicates and the whole experiment was repeated twice.
The compounds to be tested were dissolved in dimethylsulfoxide (DMSO) and the solution brought up to 10^−3 M with distilled water. […] As summarized in Table 6 below, the presence of C-8 substitutent was beneficial and led to increase of antisenescent properties.

[4] = test system: cytokinin-dependent tobacco callus Nicotiana tabacum L. cv. Wisconsin 38; assay: Plant cell division: growth of cytokinin-dependent tobacco callus; format: cell-based; details: for Activity (%); (s.d.): relative activity at concentration with highest activity, 10^−6 M kinetin set at 100%; for Concentration with highest activity (mol/l): tobacco callus fresh weight increase after four weeks, tested 10^−8 M to 10^−4 M
Description: Cytokinin-dependent tobacco callus Nicotiana tabacum L. cv. Wisconsin 38 was maintained at 25° C. in darkness on modified MS medium, containing 4 μmol/l nicotinic acid, 2.4 μmol/l pyridoxine hydrochloride, 1.2 μmol/l thiamine, 26.6 μmol/l glycine, 1.37 μmol/l glutamine, 1.8 μmol/l myo-inositol, 30 g/l of sucrose, 8 g/l of agar, 5.37 μmol/l NAA and 0.5 μmol/l BAP. Subcultivation was carried out every three weeks. Fourteen days before the bioassay, the callus tissue was transferred to the media without BAP. Biological activity was determined from the increase in fresh callus weight after four weeks of cultivation. Five replicates were prepared for each cytokinin concentration and the entire test was repeated twice. From the obtained data, the concentration with highest activity was selected for each compound tested. Relative activity at this concentration was calculated (see Table 17 below). The activity obtained for 10^−6 M kinetin (Kin) was set as 100%.
The cytokinins to be tested were dissolved in dimethylsulfoxide (DMSO) and the solution brought up to 10^−3M with distilled water.

Row | SMILES | mutagenic response [1] | SENESCENT CELLS (%) HDF25 [2] [%] | SENESCENT CELLS (%) HDF45 [2] [%] | SENESCENT CELLS (%) HDF80 [2] [%] | Activity (%) (s.d.), retention of chlorophyll [3] | Activity (%); (s.d.) [4] | Concentration with highest activity (mol/l) [4]
1 | Clc1nc2c(NCc3ccco3)ncnc2n1C1CCCO1 (stereo not shown) [Compound 63] | no positive mutagenic responses | 2 | 4 | 19 | 110 (±2) % |  | 
2 | Oc1ccc(CNc2ncnc3c2nc(Cl)n3C2CCCO2)cc1O (stereo not shown) [Compound 66] | no positive mutagenic responses | 2 | 4 | 16 | 132 (±5) % |  | 
3 | Fc1ccc(CNc2ncnc3c2nc(Cl)n3C2CCCO2)cc1F (stereo not shown) [Compound 67] | no positive mutagenic responses | 4 | 6 | 18 | 128 (±6) % |  | 
4 | Oc1cccc(CNc2ncnc3c2nc(Cl)n3C2CCCO2)c1 (stereo not shown) [Compound 70] | no positive mutagenic responses | 2 | 5 | 18 | 126 (±1) % | 110 (±1) % | 10^−6-10^−4 mol/l
5 | Fc1cccc(CNc2ncnc3c2nc(Cl)n3C2CCCO2)c1 (stereo not shown) [Compound 71] | no positive mutagenic responses | 3 | 6 | 19 | 119 (±3) % | 116 (±2) % | 10^−6-10^−4 mol/l
6 | Brc1nc2c(NCc3ccco3)ncnc2n1C1CCCO1 (stereo not shown) [Compound 72] | no positive mutagenic responses | 3 | 4 | 17 | 106 (±2) % |  | 
7 | C/C(=C/CNc1ncnc2c1nc(Br)n2C1CCCO1)CO (stereo not shown) [Compound 74] | no positive mutagenic responses | 3 | 5 | 21 | 127 (±5) % | 122 (±4) % | 10^−6-10^−4 mol/l
8 | CC(C)=CCNc1ncnc2c1nc(Br)n2C1CCCO1 (stereo not shown) [Compound 75] |  |  |  |  |  | 119 (±4) % | 10^−6-10^−4 mol/l
9 | Oc1cccc(CNc2ncnc3c2nc(I)n3C2CCCO2)c1 (stereo not shown) [Compound 76] | no positive mutagenic responses | 3 | 4 | 15 | 112 (±3) % | 114 (±3) % | 10^−6-10^−4 mol/l
10 | OCCNc1nc2c(NCc3ccco3)ncnc2n1C1CCCCO1 (stereo not shown) [Compound 243, 6-furfurylamino-8-(2-hydroxyethylamino)-9-(tetrahydropyran-2-yl)-9H-purine] | no positive mutagenic responses |  |  |  |  |  | 
11 | c1coc(CNc2ncnc3[nH]cnc23)c1 [kinetin, reference compound] |  | 3 | 5 | 38 | 100% |  | 
